Counter-ions that a name gives are not always drawn. Active and inactive are the calls of the source.
Columns and labels:
cells = format: functional
Aminopeptidase N = molecular target: T1, Aminopeptidase N (Plasmodium falciparum FcB1/Columbia, UniProt O96935); assay: malaria alanyl aminopeptidase activity blockers – biochemical, fluorogenic H-Leu-NHMec substrate, 1536-well (AID 1445); set-up: species or system Plasmodium falciparum 3D7, 3D7
T1 sequence (O96935 whole entry): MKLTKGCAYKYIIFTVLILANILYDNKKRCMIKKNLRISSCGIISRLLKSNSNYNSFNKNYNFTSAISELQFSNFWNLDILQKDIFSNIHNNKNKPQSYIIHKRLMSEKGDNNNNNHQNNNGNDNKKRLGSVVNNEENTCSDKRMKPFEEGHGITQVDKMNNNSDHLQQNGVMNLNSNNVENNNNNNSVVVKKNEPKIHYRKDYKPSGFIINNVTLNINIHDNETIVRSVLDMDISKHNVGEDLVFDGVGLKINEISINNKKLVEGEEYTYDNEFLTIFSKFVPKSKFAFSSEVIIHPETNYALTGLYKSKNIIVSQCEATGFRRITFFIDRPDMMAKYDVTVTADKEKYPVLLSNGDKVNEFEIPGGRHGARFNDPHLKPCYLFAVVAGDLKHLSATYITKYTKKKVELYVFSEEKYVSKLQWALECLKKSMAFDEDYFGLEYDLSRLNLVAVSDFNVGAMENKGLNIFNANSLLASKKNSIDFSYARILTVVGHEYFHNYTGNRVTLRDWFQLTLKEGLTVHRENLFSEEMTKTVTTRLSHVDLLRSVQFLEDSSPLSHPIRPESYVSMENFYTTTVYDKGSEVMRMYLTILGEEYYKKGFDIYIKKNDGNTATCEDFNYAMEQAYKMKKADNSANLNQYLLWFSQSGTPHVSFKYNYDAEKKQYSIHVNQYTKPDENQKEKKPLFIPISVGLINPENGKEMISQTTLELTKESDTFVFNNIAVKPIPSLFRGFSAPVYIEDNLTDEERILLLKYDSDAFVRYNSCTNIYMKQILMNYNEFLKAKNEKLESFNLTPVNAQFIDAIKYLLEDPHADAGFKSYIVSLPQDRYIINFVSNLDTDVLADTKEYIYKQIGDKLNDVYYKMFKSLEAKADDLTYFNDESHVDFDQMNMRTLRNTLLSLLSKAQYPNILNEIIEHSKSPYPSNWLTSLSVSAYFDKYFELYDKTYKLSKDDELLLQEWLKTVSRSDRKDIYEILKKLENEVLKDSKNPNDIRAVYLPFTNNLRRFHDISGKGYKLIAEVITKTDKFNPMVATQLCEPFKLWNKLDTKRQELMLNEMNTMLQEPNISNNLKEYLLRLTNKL

Fatty acid synthase [1] = molecular target: T2, Fatty acid synthase (Homo sapiens, UniProt P49327); assay: inhibition of human FAS-TE enzyme activity – biochemical, kinetic fluorescence intensity, dose response (AID 624326); format: functional;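 further: rate of fluorescence rise from hydrolysis of a fluorogenic O-methyl fluorescein ester substrate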
T2 sequence (P49327 whole entry): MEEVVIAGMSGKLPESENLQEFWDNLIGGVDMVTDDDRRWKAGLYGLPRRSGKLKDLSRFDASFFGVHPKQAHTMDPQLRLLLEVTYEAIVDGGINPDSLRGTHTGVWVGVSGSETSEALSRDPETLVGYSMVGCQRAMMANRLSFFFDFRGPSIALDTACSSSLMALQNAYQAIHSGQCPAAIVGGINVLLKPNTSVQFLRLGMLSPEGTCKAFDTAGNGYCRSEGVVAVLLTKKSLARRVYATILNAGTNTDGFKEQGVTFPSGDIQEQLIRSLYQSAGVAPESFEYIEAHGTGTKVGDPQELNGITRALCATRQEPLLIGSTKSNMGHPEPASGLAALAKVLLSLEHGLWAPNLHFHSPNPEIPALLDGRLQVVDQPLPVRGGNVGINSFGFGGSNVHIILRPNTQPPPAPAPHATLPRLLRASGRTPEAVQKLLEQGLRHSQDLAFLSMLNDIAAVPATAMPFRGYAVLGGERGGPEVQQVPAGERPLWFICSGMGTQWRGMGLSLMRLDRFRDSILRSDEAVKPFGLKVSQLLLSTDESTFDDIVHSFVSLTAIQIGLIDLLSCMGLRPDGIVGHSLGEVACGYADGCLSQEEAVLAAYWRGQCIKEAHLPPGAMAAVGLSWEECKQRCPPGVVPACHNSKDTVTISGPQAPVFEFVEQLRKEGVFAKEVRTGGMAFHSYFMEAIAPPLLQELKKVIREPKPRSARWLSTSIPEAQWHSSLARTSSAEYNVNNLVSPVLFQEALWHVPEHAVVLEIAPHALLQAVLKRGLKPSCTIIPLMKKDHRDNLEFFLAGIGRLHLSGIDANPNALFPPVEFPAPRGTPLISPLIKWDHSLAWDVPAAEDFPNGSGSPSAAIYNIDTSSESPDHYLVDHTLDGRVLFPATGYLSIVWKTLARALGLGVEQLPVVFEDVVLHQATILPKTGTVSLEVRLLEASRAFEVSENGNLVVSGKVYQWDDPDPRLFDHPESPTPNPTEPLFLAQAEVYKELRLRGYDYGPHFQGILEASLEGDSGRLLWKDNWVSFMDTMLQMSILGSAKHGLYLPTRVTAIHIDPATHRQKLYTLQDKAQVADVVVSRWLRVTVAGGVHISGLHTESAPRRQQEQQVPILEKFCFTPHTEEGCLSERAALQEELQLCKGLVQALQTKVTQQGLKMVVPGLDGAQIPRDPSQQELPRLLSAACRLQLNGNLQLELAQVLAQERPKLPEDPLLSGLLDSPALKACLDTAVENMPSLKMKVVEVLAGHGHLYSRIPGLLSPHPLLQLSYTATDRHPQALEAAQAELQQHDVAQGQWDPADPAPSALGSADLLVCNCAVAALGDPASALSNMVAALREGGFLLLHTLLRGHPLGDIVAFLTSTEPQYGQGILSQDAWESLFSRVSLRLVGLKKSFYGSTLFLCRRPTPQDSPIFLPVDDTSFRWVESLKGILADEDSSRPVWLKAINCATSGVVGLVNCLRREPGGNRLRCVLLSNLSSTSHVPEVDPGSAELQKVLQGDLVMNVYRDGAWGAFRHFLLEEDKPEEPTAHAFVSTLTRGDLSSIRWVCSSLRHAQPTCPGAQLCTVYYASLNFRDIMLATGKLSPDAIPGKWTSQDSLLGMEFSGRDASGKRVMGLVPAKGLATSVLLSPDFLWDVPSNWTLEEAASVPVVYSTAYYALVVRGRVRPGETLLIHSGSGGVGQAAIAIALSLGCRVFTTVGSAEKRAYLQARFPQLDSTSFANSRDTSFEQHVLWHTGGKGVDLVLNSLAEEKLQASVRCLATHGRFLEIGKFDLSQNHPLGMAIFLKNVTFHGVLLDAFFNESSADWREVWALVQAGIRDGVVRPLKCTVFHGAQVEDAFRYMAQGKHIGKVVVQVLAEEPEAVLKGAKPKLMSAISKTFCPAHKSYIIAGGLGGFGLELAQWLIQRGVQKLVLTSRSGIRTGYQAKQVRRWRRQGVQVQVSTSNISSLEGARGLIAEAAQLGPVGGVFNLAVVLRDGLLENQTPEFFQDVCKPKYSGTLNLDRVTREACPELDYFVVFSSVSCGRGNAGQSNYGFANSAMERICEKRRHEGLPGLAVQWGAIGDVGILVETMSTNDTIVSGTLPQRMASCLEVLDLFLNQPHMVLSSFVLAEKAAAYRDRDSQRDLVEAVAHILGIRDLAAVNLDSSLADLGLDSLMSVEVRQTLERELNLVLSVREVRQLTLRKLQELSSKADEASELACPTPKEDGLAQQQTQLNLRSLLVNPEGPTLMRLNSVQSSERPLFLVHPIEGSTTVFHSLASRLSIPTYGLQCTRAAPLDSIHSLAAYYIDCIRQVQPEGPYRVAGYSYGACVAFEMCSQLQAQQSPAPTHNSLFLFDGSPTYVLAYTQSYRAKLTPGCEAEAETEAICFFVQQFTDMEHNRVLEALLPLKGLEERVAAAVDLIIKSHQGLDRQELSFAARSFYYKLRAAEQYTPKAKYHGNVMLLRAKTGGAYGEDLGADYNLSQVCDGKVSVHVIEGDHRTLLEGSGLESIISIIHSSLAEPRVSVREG

Fatty acid synthase [2] = molecular target: T2, Fatty acid synthase; assay: inhibition of human FAS-TE enzyme activity – biochemical, endpoint fluorescence intensity, uHTS hits, dose response (AID 624327); format: functional;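 further: fluorescence from hydrolysis of an O-methyl fluorescein acyl ester substrate by the enzyme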
[3] = molecular target: T3, Corticotropin-releasing factor receptor 2/Corticotropin-releasing factor-binding protein (Homo sapiens, UniProt P24387+Q13324); assay: activators of CRF receptor 2 with binding protein – uHTS hits, confirmation (AID 602473); format: functional; conditions: read-out: EC50_Mean
T3 sequence (Q13324 whole entry): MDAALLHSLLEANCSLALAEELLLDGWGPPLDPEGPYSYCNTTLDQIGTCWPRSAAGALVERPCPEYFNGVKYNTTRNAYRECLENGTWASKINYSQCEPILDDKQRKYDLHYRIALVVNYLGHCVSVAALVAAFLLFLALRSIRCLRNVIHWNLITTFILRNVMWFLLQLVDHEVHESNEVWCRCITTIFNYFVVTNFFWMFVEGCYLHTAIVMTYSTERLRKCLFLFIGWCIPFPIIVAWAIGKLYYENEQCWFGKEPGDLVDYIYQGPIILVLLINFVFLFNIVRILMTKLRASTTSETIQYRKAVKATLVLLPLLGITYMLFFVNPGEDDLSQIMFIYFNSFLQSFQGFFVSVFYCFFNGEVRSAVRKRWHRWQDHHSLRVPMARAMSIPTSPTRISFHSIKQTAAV
T3 sequence (P24387 whole entry): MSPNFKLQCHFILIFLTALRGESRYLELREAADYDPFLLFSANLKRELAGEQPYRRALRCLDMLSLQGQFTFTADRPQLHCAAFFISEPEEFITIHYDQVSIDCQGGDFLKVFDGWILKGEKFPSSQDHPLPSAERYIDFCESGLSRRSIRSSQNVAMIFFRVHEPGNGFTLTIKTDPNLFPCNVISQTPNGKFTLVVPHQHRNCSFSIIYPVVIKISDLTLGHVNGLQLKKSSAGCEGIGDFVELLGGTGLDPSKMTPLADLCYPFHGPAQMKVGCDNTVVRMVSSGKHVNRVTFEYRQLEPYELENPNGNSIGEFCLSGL

[4] = molecular target: T4, Microphthalmia-associated transcription factor (Homo sapiens, UniProt O75030); assay: reducers of TRPM1 reporter luminescence, concentration series – cell-based, SK-MEL-5, cherry-picked, set 3, MITF inhibitor project, dose response (AID 493073); format: functional;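 further: SK-MEL-5 melanoma cells with luciferase driven by the MITF target TRPM1 promoter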
T4 sequence (O75030 whole entry): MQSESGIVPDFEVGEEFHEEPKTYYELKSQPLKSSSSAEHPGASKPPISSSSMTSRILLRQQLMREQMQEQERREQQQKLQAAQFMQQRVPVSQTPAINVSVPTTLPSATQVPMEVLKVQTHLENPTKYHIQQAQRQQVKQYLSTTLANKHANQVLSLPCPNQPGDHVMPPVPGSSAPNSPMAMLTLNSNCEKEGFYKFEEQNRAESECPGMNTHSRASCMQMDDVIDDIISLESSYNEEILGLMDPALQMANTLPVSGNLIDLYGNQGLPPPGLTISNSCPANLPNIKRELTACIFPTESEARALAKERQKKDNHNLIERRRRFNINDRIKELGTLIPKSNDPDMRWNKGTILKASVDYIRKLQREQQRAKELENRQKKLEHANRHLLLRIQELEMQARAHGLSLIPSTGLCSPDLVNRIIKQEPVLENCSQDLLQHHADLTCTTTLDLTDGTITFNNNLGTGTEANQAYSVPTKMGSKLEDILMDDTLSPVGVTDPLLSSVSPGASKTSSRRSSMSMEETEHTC

Large T antigen = Large T antigen (Simian virus 40, UniProt P03070); format: functional, Betapolyomavirus macacae;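 further: Confirmatory-stage PubChem screen for compounds that inhibit SV40 T antigen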
Chain of Large T antigen (P03070 whole entry): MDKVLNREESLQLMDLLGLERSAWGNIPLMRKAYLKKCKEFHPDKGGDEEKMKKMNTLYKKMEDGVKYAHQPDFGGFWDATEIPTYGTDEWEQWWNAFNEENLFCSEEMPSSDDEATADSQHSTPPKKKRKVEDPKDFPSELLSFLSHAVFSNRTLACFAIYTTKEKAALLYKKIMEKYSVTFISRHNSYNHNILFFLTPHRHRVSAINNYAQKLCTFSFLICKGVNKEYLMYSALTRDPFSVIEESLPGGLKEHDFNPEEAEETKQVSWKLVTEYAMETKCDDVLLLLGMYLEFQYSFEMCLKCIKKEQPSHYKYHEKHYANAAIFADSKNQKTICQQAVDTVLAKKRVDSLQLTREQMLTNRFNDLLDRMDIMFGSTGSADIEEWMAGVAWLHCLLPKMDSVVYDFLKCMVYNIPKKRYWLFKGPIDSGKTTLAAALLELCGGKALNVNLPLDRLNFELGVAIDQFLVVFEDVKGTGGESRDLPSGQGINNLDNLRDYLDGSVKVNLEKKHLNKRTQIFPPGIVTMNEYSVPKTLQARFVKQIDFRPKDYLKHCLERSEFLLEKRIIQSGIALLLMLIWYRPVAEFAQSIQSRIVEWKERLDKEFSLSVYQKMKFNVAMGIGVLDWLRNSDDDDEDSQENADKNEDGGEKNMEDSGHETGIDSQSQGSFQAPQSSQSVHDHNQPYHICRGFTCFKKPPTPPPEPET

[5] = molecular target: T5, Ubiquitin-conjugating enzyme E2 N (Homo sapiens, UniProt P61088); format: functional
T5 sequence (P61088 whole entry): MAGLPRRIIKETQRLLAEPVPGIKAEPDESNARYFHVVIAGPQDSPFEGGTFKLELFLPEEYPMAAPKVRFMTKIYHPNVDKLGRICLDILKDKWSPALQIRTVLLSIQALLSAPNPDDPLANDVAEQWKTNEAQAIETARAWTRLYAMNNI

Bcl-2-related protein A1 = molecular target: T6, Bcl-2-related protein A1 (Mus musculus, UniProt Q07440); format: functional;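 further: confirmatory dose–response counterscreen on Bfl-1, used to check hits from a UBC13 polyubiquitin inhibitor campaign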
T6 sequence (Q07440 whole entry): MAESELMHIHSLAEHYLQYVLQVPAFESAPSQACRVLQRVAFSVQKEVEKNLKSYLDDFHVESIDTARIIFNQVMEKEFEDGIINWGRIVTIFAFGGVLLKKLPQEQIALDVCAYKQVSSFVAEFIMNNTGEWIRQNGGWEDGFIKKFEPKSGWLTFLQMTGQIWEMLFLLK

[6] = molecular target: T5, Ubiquitin-conjugating enzyme E2 N; format: functional; remark: listed apart in the source
P388 = assay: cells; format: functional; conditions: Mus musculus
P388/ADR = assay: cells; format: functional; conditions: Mus musculus
SN12K1 = assay: cells; format: functional; conditions: Homo sapiens
[7] = HIV-1 AD8 envelope cell-cell fusion blockers – cherry-pick, dose response (AID 652062); format: functional, cell-based;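 further: luciferase signal from cell-cell fusion driven by HIV-1 clade B AD8 Env; potency is for inhibitors of fusion seen as a drop in luminescence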
[8] = blockers of HIV-1 ZM109 envelope-driven cell-cell fusion – HeLa effector, CEM target cells, luciferase, cherry-pick, dose response (AID 652058); format: functional, cell-based;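 further: luciferase signal from HIV-1 Env mediated cell-cell fusion of effector and target cells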
[9] = blockers of HIV-1 envelope-mediated cell-cell fusion – cherry-pick, dose response (AID 652057); format: functional, cell-based

With O=C1OC(/C(=C\Nc2cc(Cl)ccc2O)[N+](=O)[O-])c2ccccc21 (stereo unspecified) the IC50 (cells) was 11.7 µM (active) and the IC50 (Aminopeptidase N) was 48.8 µM (active).

In the case of CCCNC(=O)/C(=C/c1cn(S(=O)(=O)N(C)C)c2ccccc12)NC(=O)c1ccc(OC)cc1, the IC50 (Fatty acid synthase [1]) is reported as 6.75 µM (active), the IC50 (Fatty acid synthase [2]) is reported as 4.86 µM (active) and the EC50 [3] is reported as 4.01 µM (active).

With O=C1CCC(=O)N1c1nc2n(n1)C(c1ccccc1)C=C(c1ccc(Br)cc1)N2 (stereo unspecified) the IC50 (Aminopeptidase N) was 69.7 µM (active).

With CCN(CC)CCNC(=O)c1ccc(NC(=O)c2cccc(S(=O)(=O)N3c4ccccc4CC3C)c2)cc1 (stereo unspecified) the AC50 [4] was 10.5 µM (active).

For CCN(CC)S(=O)(=O)c1ccc(C(=O)Oc2coc(CSc3nc(C)cc(C)n3)cc2=O)cc1, the IC50 (Large T antigen) was 40.4 µM (active).

In the case of CC(C)(C)c1ccc(C(=O)NCCC(=O)Nc2cc(Cl)ccc2N2CCOCC2)cc1, the IC50 (Fatty acid synthase [1]) is reported as 4.54 µM (active) and the IC50 (Fatty acid synthase [2]) is reported as 9.59 µM (active).

With N#Cc1cc2sc3nnc(-c4ccncc4)n3c2cc1C#N the IC50 (Fatty acid synthase [1]) was 4.69 µM (active) and the IC50 (Fatty acid synthase [2]) was 3.82 µM (active).

With O=C(CSc1nc2ccsc2c(=O)n1Cc1ccccc1)NCc1ccco1 the IC50 [5] was 18.1 µM (active), the IC50 (Bcl-2-related protein A1) was > 20 µM (inactive) and the IC50 [6] was > 20 µM (inactive).

With COc1cc(/C=C/c2ccc(OC)c(OC)c2)oc(=O)c1 the GI50 (P388) was 96.4 µM (inactive), the GI50 (P388/ADR) was > 183 µM (inactive) and the GI50 (SN12K1) was > 183 µM (inactive).

In the case of Cc1ccc(C2COc3cc(O)c(O)cc3C2)cc1 (stereo unspecified), the GI50 (P388) is reported as 1.75 µM (inactive), the GI50 (P388/ADR) is reported as 1.79 µM (inactive) and the GI50 (SN12K1) is reported as 13.2 µM (inactive).

For Cc1ccc(S(=O)(=O)N(C)C[C@@H]2Oc3ncc(/C=C/c4ccccc4)cc3C(=O)N([C@H](C)CO)C[C@@H]2C)cc1, the AC50 [7] was 3.55 µM (active), the AC50 [8] was 2.57 µM (active) and the AC50 [9] was 0.577 µM (active).

For O=C(C[C@H]1C=C[C@@H](NC(=O)Nc2ccccc2F)[C@@H](CO)O1)NCc1ccc(Cl)cc1, the AC50 [7] was 9.13 µM (active) and the AC50 [9] was 3.07 µM (active).

With CCN1CCCC(NCc2c3ccccc3c(CNC3CCCN(CC)C3)c3ccccc23)C1 (stereo unspecified) the GI50 (P388) was 2.64 µM (inactive), the GI50 (P388/ADR) was 15.7 µM (inactive) and the GI50 (SN12K1) was 8.32 µM (inactive).

For CN1CCN(c2ccc([N+](=O)[O-])cc2/C=N/NC(=O)c2ccc(F)cc2)CC1, the IC50 (Fatty acid synthase [1]) was 16 µM (active) and the IC50 (Fatty acid synthase [2]) was 11.2 µM (active).

For Cc1nc(NS(=O)(=O)c2ccccc2)sc1C(=O)N/N=C/c1ccccc1, the IC50 (Aminopeptidase N) was 50.1 µM (active).

In the case of CCCCS(=N)(=O)CC[C@H](N)C(=O)O (stereo partly specified) [BUTHIONINE SULFOXIME], the GI50 (P388) is reported as 2250 µM (inactive), the GI50 (P388/ADR) is reported as > 5000 µM (inactive) and the GI50 (SN12K1) is reported as 3720 µM (inactive).

With CCCCCCCCCCCCCCCCSCC(COC)COP(=O)([O-])OCC[N+](C)(C)C (stereo unspecified) [ILMOFOSINE] the GI50 (P388) was 2.36 µM (inactive), the GI50 (P388/ADR) was 4.01 µM (inactive) and the GI50 (SN12K1) was 11.7 µM (inactive).

In the case of N[C@@H](Cc1ccc(N(CCCl)CCCl)cc1)C(=O)O [MELPHALAN HYDROCHLORIDE], the GI50 (P388) is reported as 2.39 µM (inactive), the GI50 (P388/ADR) is reported as 5.71 µM (inactive) and the GI50 (SN12K1) is reported as 26.5 µM (inactive).
